{"source": "paper PMC6259308", "about": "“Preparation and Properties of New Co-Crystals of Ibandronate with Gluco- or Galactopyranoside Derivatives” (Molecules, 2010)", "key": {"[1]": {"settings": "cited from earlier work"}, "[2]": {"assay": "In vitro screening of absorption (PAMPA experiments)", "format": "in vitro ADME", "protocol": "The permeability of ibandronate (as a control sample) and samples 1-3, 6 and 7 was tested. To retain interactions of both components in the solution it is recommended to increase the concentration of the counterion in the applied mixture. Therefore samples 1-3, 6 and 7 with the addition of sixfold quantity of phenyl-β-D-galactopyranoside to the co-crystal solution were also evaluated.\nThe permeability of generated co-crystals was evaluated in vitro, using a vertical PAMPA (Parallel Artificial Membrane Permeability Assay) system (BD GentestTMPre-Coated PAMPA Plate System, 96 wells, http://www.bdbeurope.com). The donor samples were prepared by dissolving the tested potential co-crystals in 0.01 M HCl, and than pH was adjusted by bicarbonate buffer to pH 7.4. The control sample was prepared in the same manner from ibandronate standards. A carbonate buffer saline (physiological solution) with pH 7.4 was used as a receptor phase. About 0.5 h before the experiment the PAMPA system was taken out from the freezer and warmed up to the ambient temperature. The receptor phase (200 μL/well) was pipetted into the upper wells. The donor phase was pipetted into the lower ones (300 μL/well). After the incubation time (5 h) 10 μL of the acceptor phase was taken from each well and mixed with physiological solution (990 μL). At least five determinations were performed. […]"}}, "data": [{"smiles": "CCCCCN(C)CCC(O)(P(=O)([O-])O)P(=O)(O)O.[Na+]", "note": "[IBN monosodium salt, sodium hydrogen {1-hydroxy-3-[methyl(pentyl)amino]-1-phosphonopropyl}phosphonate]", "values": [{"measurement": "Solubility in organic solvents", "setting": "[1]; organic solvents", "value": "practically insoluble"}, {"measurement": "Solubility in water", "setting": "[1]; water", "value": "freely soluble"}, {"measurement": "Absorption in PAMPA (in words, relative to ibandronate control)", "setting": "[2]; PAMPA, pH 7.4, 5 h", "value": "highest absorption"}, {"measurement": "Concentration in acceptor solutions of PAMPA plates, Conc.", "setting": "[2]; donor and receptor phase pH 7.4, incubation 5 h, calculated from 5 experiments, samples 1a-7a with sixfold quantity of phenyl-β-D-galactopyranoside added to the co-crystal solution", "value": 2.4, "unit": "µg/mL"}]}]}
